Source: article PMC12592319, “Predicting Food Effect On Oral Drug Absorption For Solubility-Epithelial Membrane Permeation-Limited Cases With Bile Micelle Solubilization” (Pharmaceutical Research, 2025)
Converted amounts (≈) assume the structure as drawn. Where two headings read alike, the source gives them in different places.

Columns and labels:
[1] = pKa measurement (SiriusT3, UV-metric/pH-metric titration); type: physicochemical; settings: ionic strength 0.168 mol/L, 37°C
Procedure: The pKa measurements were performed using a SiriusT3 automatic titrator, with a spectrometric (UV-metric) or titration (pH-metric) method. The UV-metric method used a fiber optic dip probe, a deuterium lamp UV light source, and a photodiode array detector to capture the absorption spectra of a sample solution over the course of three titrations, across the pH range 2.0–12.0. […] Titrations were carried out under a controlled temperature of 37 ± 0.2°C.
SiriusT3 software v2.0 was used to apply principal component analysis to the spectral data to resolve the molar absorptivity spectra of each sample species and determine the psKa values of the compounds in the co-solvent. The pKa values under aqueous conditions were calculated from the co-solvent data using the Yasuda-Shedlovsky extrapolation method.
Additional potentiometric titrations were performed for each drug, which confirmed that no additional non-UV active pKas were present within the titration pH range.

[2] = FaRLS diagnosis by Fa equation and Peff equation (Table S3, dose number); settings: for Dose number, Fasted / Dose number, Fed: clinical dose; for Dose number, Fasted: Sdissolv in FaSSIF; for Dose number, Fed: Sdissolv in FeSSIF; for fraction unbound: human, bile micelles in FaSSIF, pH 6.5
[3] = clinical AUC ratio fed/fasted, humans; cited from earlier work
[4] = assumed to be the same as Caco-2 Papp, cited from earlier work
[5] = cited from earlier work
[6] = μFLUX dissolution-permeation flux experiment; settings: for kdiss: calculated from the initial dissolution rate in μFLUX; for Ratio (fed/fasted) CD,final / Ratio (fed/fasted) JμFLUX: FeSSIF/FaSSIF, μFLUX dose 1/10 of the clinical dose; for fraction unbound: pH 6.5, fu; for fraction unbound / fu: calculated by Eq. (9) (Sdissolv,u/Sdissolv); for CD,final: measured after filtration, 1/10 of clinical dose, mean ± S.D., N = 3; for Pep,u,μFLUX: Peff,μFLUX/fu; for JμFLUX: average of 90 to 120 min (pranlukast 210 to 240 min); for Peff,μFLUX: calculated based on CD,final; for Time after which CD reached a plateau: donor solution
[7] = test system: Caco-2; design: method as in PMID 9795088, PMID 10767597, PMID 15032311; settings: cited from earlier work
[8] = Octanol-water partition/distribution coefficient (logPoct, logDoct); type: physicochemical; settings: calculated from logPoct and pKa using the Henderson-Hasselbalch equation
Text: Table II Physicochemical Properties and Caco-2 Permeability of Model Drugs | column: logDoct,pH 6.5^c

[9] = Equilibrium solubility measurement (shake-flask) in blank FaSSIF, FaSSIF, FeSSIF; type: physicochemical; settings: for solubility at 72 h: thermodynamic from solid, pH 6.5, 37°C, mean ± S.D., N = 3; for Ratio (fed/fasted) Sdissolv: FeSSIF/FaSSIF, corresponds to Fafed/Fafasted predicted by Eq. (18)
Procedure: A shake-flask method was used for equilibrium solubility measurement. Each drug (10 mg) was added to the 15 mL test tube. Blank FaSSIF (28.7 mM phosphate buffer, pH 6.5 adjusted by NaOH), FaSSIF (3 mM TC, 0.75 mM EL in blank FaSSIF), or FeSSIF (15 mM TC, 3.75 mM EL in blank FaSSIF) was added. The test tube was placed horizontally in a reciprocal shaker. After shaking for 72 h at 37°C (at 90 rpm, motion width: 2.5 cm), the sample was filtered (hydrophilic PVDF, φ = 4.0 mm, pore size: 0.22 µm, Merck). The first few droplets were discarded to avoid filter adsorption. The concentration of each drug was measured by UV absorbance. […] After measuring the final pH (9615S-10D Standard ToupH electrode (HORIBA Advanced Techno Co., Ltd., Kyoto, Japan)), the residual particles were collected by vacuum filtration and analyzed by powder X-ray diffraction (PXRD) (Supplemental Information Figure S1).

[10] = design: method as in PMID 20307655, PMID 19465123, PMID 17828749, PMID 23994640; settings: pH 6.5; cited from earlier work
[11] = design: method as in PMID 31863733; settings: previous prediction; cited from earlier work
[12] = bile micelles in FaSSIF, FaSSIF
[13] = bile micelles in FeSSIF, FeSSIF
[14] = FaSSIF, read-out: Solubility, FaSSIF
[15] = FeSSIF, read-out: Solubility, FeSSIF
[16] = blank FaSSIF, read-out: Solubility, Blank FaSSIF

Structure (SMILES) | pKa ([1]; acidic pKa, read-out: pKa (A)) | Dose number, Fasted [2] | Dose number, Fed [2] | Ratio (fed/fasted) AUCr [3] | logPoct [5] | Ratio (fed/fasted) CD,final [6] | Ratio (fed/fasted) JμFLUX [6] | fraction unbound [6, 12] | fraction unbound [6, 13] | CD,final ([6]; donor FaSSIF pH 6.5) [µg/mL] | Pep,u,μFLUX ([6]; donor FaSSIF) | JμFLUX ([6]; donor FaSSIF) | Peff,μFLUX ([6]; donor FaSSIF) | CD,final ([6]; donor FeSSIF pH 6.5) | Pep,u,μFLUX ([6]; donor FeSSIF) | JμFLUX ([6]; donor FeSSIF) | Peff,μFLUX ([6]; donor FeSSIF) | Caco-2 Papp [7] | logDoct,pH 6.5 [8] | Ratio (fed/fasted) Sdissolv [9] | also measured
COc1ccccc1Oc1c(NS(=O)(=O)c2ccc(C(C)(C)C)cc2)nc(-c2ncccn2)nc1OCCO [Bosentan] | 4.87 | 23 | 9 | 1.1 | 3.8 | 1.9 | 0.91 | 0.73 | 0.34 | 49 ± 0 | 18 ± 2 10^–5 cm/s | 6.7 ± 0.8 10–^3 μg/cm^2/s | 14 ± 2 10^–5 cm/s | 95 ± 0 µg/mL | 19 ± 1 10^–5 cm/s | 6.1 ± 0.2 10–^3 μg/cm^2/s | 6.4 ± 0.2 10^–5 cm/s | 1 [52] 10^–6 cm/s | 2.2 | 2.1 | Dn ([2]; Fasted): 5.9; Do ([2]; Fasted): 23; Pep ([2]; Fasted): 0.73 10^-6 cm/s; Pep' ([2]; Fasted): 7.3 10^-6 cm/s; Dn ([2]; Fed): 9.1; Do ([2]; Fed): 9.2; Pep ([2]; Fed): 0.34 10^-6 cm/s; Pep' ([2]; Fed): 3.4 10^-6 cm/s; fraction unbound [2]: 0.73; Pep,u ([4]; Fasted): 1 10^-6 cm/s; Pep,u ([4]; Fed): 1 10^-6 cm/s; kdiss ([6]; Fasted): 0.0004708 s⁻¹; kdiss ([6]; Fed): 0.0007219 s⁻¹; Time after which CD reached a plateau [6]: 20 min; solubility at 72 h [9, 14]: 41 ± 1 µg/mL (≈ 74.3 µM); solubility at 72 h [9, 15]: 87 ± 1 µg/mL (≈ 158 µM); solubility at 72 h [9, 16]: 30 ± 1 µg/mL (≈ 54.4 µM)
Cc1ccc(-c2cc(C(F)(F)F)nn2-c2ccc(S(N)(=O)=O)cc2)cc1 [Celecoxib] | – | 67 | 25 | 1.6 | 3.5 | 1.7 | 1.7 | 0.069 | – | 37 ± 1 | – | 6.7 ± 0.4 10–^3 μg/cm^2/s | 18 ± 2 10^–5 cm/s | 62 ± 1 µg/mL | – | 11 ± 1 10–^3 μg/cm^2/s | 18 ± 1 10^–5 cm/s | 18 [56] 10^–6 cm/s | 3.5 | 2.2 | Solubility, Blank FaSSIF [10]: 3.2 µg/mL (≈ 8.39 µM); Solubility, FaSSIF [10]: 46.2 µg/mL (≈ 121 µM); Solubility, FeSSIF [10]: 103 µg/mL (≈ 270 µM); Food effect predicted by the GUT framework [11]: 2.3; fu ([6]; FeSSIF): 0.031; Time after which CD reached a plateau [6]: 20 min
C#C[C@]1(O)CC[C@H]2[C@@H]3CCC4=Cc5oncc5C[C@]4(C)[C@H]3CC[C@@]21C [Danazol] | – | 43 | 14 | – | 4.5 | – | – | 0.011 | 0.0043 | – | – | – | – | – | – | – | – | – | 4.5 | – | –
CCc1c(Cl)c(O)c(Cl)c(O)c1C(=O)O[C@H]1[C@H](O)[C@H](OC)[C@H](OC/C2=C\C=C\C[C@H](O)/C(C)=C/[C@H](CC)[C@@H](O[C@@H]3OC(C)(C)[C@@H](OC(=O)C(C)C)[C@H](O)[C@@H]3O)/C(C)=C/C(C)=C/C[C@@H]([C@@H](C)O)OC2=O)O[C@@H]1C [Fidaxomicin] | 5.15 | 20 | 7 | 1.0 | 3.7 | 3.1 | 0.81 | 0.6 | 0.26 | 72 ± 0 | 17 ± 2 10^–5 cm/s | 7.4 ± 0.7 10–^3 μg/cm^2/s | 10 ± 1 10^–5 cm/s | 220 ± 0^ h μg/mL | 10 ± 1 10^–5 cm/s | 6.0 ± 0.7 10–^3 μg/cm^2/s | 2.7 ± 0.3 10^–5 cm/s | – | 2.3 | 2.3 | Dn ([2]; Fasted): 3.7; Do ([2]; Fasted): 20; Pep ([2]; Fasted): 0.055 10^-6 cm/s; Pep' ([2]; Fasted): 0.55 10^-6 cm/s; Dn ([2]; Fed): 9.3; Do ([2]; Fed): 7.2; Pep ([2]; Fed): 0.024 10^-6 cm/s; Pep' ([2]; Fed): 0.24 10^-6 cm/s; fraction unbound [2]: 0.6; Pep,u ([4]; Fed): 0.092 10^-6 cm/s; kdiss ([6]; Fasted): 0.0002967 s⁻¹; Pep,u,μFLUX less in the fed condition than in the fasted condition ([6]; FeSSIF vs FaSSIF): about 40%; kdiss ([6]; Fed): 0.0007389 s⁻¹; Time after which CD reached a plateau [6]: 20 min; solubility at 72 h [9, 14]: 77 ± 1 µg/mL (≈ 72.8 µM); solubility at 72 h [9, 15]: 178 ± 2 µg/mL (≈ 168 µM); solubility at 72 h [9, 16]: 46 ± 1 µg/mL (≈ 43.5 µM)
O=C(Nc1cccc2c(=O)cc(-c3nnn[nH]3)oc12)c1ccc(OCCCCc2ccccc2)cc1 [Pranlukast] | – | 20 | 2 | 1.3 | – | 20 | 2.4 | 0.038 | 0.004 | 56 ± 1 | 10 ± 2 10^–5 cm/s | 0.20 ± 0.05 10–^3 μg/cm^2/s | 0.37 ± 0.09 10^–5 cm/s | 1100 ± 0^ h μg/mL | 10 ± 4 10^–5 cm/s | 0.47 ± 0.16 10–^3 μg/cm^2/s | 0.043 ± 0.015 10^–5 cm/s | 0.08 [54] 10^–6 cm/s | – | 9.1 | Solubility, Blank FaSSIF [10]: 3 µg/mL (≈ 6.23 µM); Solubility, FaSSIF [10]: 88 µg/mL (≈ 183 µM); Solubility, FeSSIF [10]: 800 µg/mL (≈ 1660 µM); Bound to bile micelles ([6]; FeSSIF): 99.6%; fu ([6]; FeSSIF): 0.0041
CO[C@H]1/C=C/O[C@@]2(C)Oc3c(C)c(O)c4c(O)c(c5c(nc6cc(C)ccn65)c4c3C2=O)NC(=O)/C(C)=C\C=C\[C@H](C)[C@H](O)[C@@H](C)[C@@H](O)[C@@H](C)[C@H](OC(C)=O)[C@@H]1C [Rifaximin] | < 2 | – | – | – | – | – | – | – | – | – | – | – | – | – | – | – | – | 1 [55] 10^–6 cm/s | 2.6 | – | pKa ([1]; basic pKa, read-out: pKa (B)): 8.29; solubility at 72 h [9, 14]: 3.4 µg/mL (≈ 4.33 µM); solubility at 72 h [9, 15]: 12 µg/mL (≈ 15.3 µM); solubility at 72 h [9, 16]: 1.8 µg/mL (≈ 2.29 µM)
COc1cc(F)c(C(C)C)cc1-c1ccc(C(F)(F)F)cc1CN1C(=O)O[C@H](c2cc(C(F)(F)F)cc(C(F)(F)F)c2)[C@@H]1C [anacetrapib] | – | – | – | – | > 5 | – | – | – | – | – | – | – | – | – | – | – | – | – | – | – | –
Cc1cc(C#N)cc(C)c1Oc1nc(Nc2ccc(C#N)cc2)nc(N)c1Br [etravirine] | – | – | – | – | > 5 | – | – | – | – | – | – | – | – | – | – | – | – | – | – | – | –
Cc1cn(-c2cc(NC(=O)c3ccc(C)c(Nc4nccc(-c5cccnc5)n4)c3)cc(C(F)(F)F)c2)cn1.Cl [nilotinib HCl] | – | – | – | – | > 5 | – | – | – | – | – | – | – | – | – | – | – | – | – | – | – | –
CC1(C)CCC(CN2CCN(c3ccc(C(=O)NS(=O)(=O)c4ccc(NCC5CCOCC5)c([N+](=O)[O-])c4)c(Oc4cnc5[nH]ccc5c4)c3)CC2)=C(c2ccc(Cl)cc2)C1 [venetoclax] | – | – | – | – | > 5 | – | – | – | – | – | – | – | – | – | – | – | – | – | – | – | –
